Measurements as given in patent US11311633B2, “Satiation peptides for weight loss and altered taste sensitivity” (University of Florida Research Foundation, Incorporated, priority 2016, dated 2022).

Key:
mice [1] = test: Exendin-4 oral spray prior to meals, food intake; type: in vivo
Source text: PYY and GLP-1 are both produced in […] L-cells and secreted simultaneously into the blood stream in response to nutrient uptake. […] Similarly, a decrease in food intake of mice given Exendin-4 (Ex-4), a GLP-1 analog, in the form of an oral spray prior to meals was observed. Both of these peptides individually modulate body weight, we have evidence that, when used in combination, PYY and Ex-4 may have a synergistic effect on modulation of body weight.

mice [2] = test: PYY mouth spray, food intake after 24 hours fasting; type: in vivo
Description: FIGS. 4A-4D depict the effects of Peptide YY Mouth Spray.
Synthetic PYY was purchased from Bachem, Inc USA (Cat #H-6042) and diluted in sterile H2O. Sterile un-used perfume sample vials (Saphora) were utilized to administer PYY in the form of a mouth spray. It was estimated that the volume of one spray approximates to about […].
Mice were conditioned three times to 24 hours fasting starting at the beginning of the dark cycle and ending at the end of the light cycle. At the end of the fasting cycle and as a part of conditioned routine, a sterile water spray had been administered into the mouth. All the experiments were done during the first hour of the dark cycle after fasting. Once the dark cycle started, mice were sprayed once with either PYY or sterile H2O in a total volume of […] per spray. After the treatment, mice were returned to their cages and ten minutes later pre-weighted chow was provided. One hour later, the amount of consumed chow had been recorded by measuring the leftover amount. When the experiments were repeated, mice were fasted only once a week with the control and experimental groups rotated.

Exendin-4
food intake (mice [1]): decrease

PYY: Synthetic PYY purchased from Bachem (Cat #H-6042), diluted in sterile H2O, given as mouth spray [Peptide YY]
overall 24 hr period FI, experimental vs control group (mice [2]; after PYY mouth spray vs sterile H2O): similar | PYY dose response effect to FI (mice [2]; mouth spray, FI measured after one hour): significant | less food consumed in one hour compared to control group sprayed with H2O (mice [2]; one mouth spray, 5 μg per 100 g of body weight, after 24 hours fasting, average): 15%
